Measurements from BindingDB's records for doi:10.1021/jm970333f (University of Catania, 1998).

Experiment: Inhibition of [3H]pentazocine binding to sigma-1 sites in guinea pig brain membranes
In the case of `C[C@@H]1[C@@H]2Cc3ccc(O)cc3[C@]1(C)CCN2CCN1CCCCCC1` [(2S,6R,11S)-3-(2-Azepan-1-yl-ethyl)-6,11-dimethyl-1,2,3,4,5,6-hexahydro-2,6-methano-benzo[d]azocin-8-ol], the Ki is reported as 20 nM.
Compound `C[C@@H]1[C@@H]2Cc3ccc(O)cc3[C@]1(C)CCN2CCNCc1ccccc1` [(2S,6R,11S)-3-(2-Benzylamino-ethyl)-6,11-dimethyl-1,2,3,4,5,6-hexahydro-2,6-methano-benzo[d]azocin-8-ol] has a Ki of 30 nM.
In the case of `C[C@@H]1[C@@H]2Cc3ccc(O)cc3[C@]1(C)CCN2CCNC1CCCCC1` [(2S,6R,11S)-3-(2-Cyclohexylamino-ethyl)-6,11-dimethyl-1,2,3,4,5,6-hexahydro-2,6-methano-benzo[d]azocin-8-ol], the Ki is reported as 42 nM.
`CCN(CC)CCN1CC[C@@]2(C)c3cc(O)ccc3C[C@H]1[C@H]2C` [(2S,6R,11S)-3-(2-Diethylamino-ethyl)-6,11-dimethyl-1,2,3,4,5,6-hexahydro-2,6-methano-benzo[d]azocin-8-ol] gave a Ki of 15 nM.
Compound `C[C@@H]1[C@@H]2Cc3ccc(O)cc3[C@]1(C)CCN2CCN(C)C` [(2S,6R,11S)-3-(2-Dimethylamino-ethyl)-6,11-dimethyl-1,2,3,4,5,6-hexahydro-2,6-methano-benzo[d]azocin-8-ol] has a Ki of 20 nM.
Compound `CCN(CCN1CC[C@@]2(C)c3cc(O)ccc3C[C@H]1[C@H]2C)c1ccccc1` [(2S,6R,11S)-3-[2-(Ethyl-phenyl-amino)-ethyl]-6,11-dimethyl-1,2,3,4,5,6-hexahydro-2,6-methano-benzo[d]azocin-8-ol] has a Ki of 42 nM.
`C[C@@H]1[C@@H]2Cc3ccc(O)cc3[C@]1(C)CCN2CCN1CCOCC1` [(2S,6R,11S)-6,11-Dimethyl-3-(2-morpholin-4-yl-ethyl)-1,2,3,4,5,6-hexahydro-2,6-methano-benzo[d]azocin-8-ol] gave a Ki of 13 nM.
Work on `C[C@@H]1[C@@H]2Cc3ccc(O)cc3[C@]1(C)CCN2CCNc1ccccc1` [(2S,6R,11S)-6,11-Dimethyl-3-(2-phenylamino-ethyl)-1,2,3,4,5,6-hexahydro-2,6-methano-benzo[d]azocin-8-ol] yielded a Ki of 5.9 nM.
Work on `C[C@@H]1[C@@H]2Cc3ccc(O)cc3[C@]1(C)CCN2CCN1CCCCC1` [(2S,6R,11S)-6,11-Dimethyl-3-(2-piperidin-1-yl-ethyl)-1,2,3,4,5,6-hexahydro-2,6-methano-benzo[d]azocin-8-ol] yielded a Ki of 9.6 nM.
In the case of `C[C@@H]1[C@@H]2Cc3ccc(O)cc3[C@]1(C)CCN2CCN1CCCC1` [(2S,6R,11S)-6,11-Dimethyl-3-(2-pyrrolidin-1-yl-ethyl)-1,2,3,4,5,6-hexahydro-2,6-methano-benzo[d]azocin-8-ol], the Ki is reported as 7.4 nM.
In the case of `C[C@@H]1[C@@H]2Cc3ccc(O)cc3[C@]1(C)CCN2CCN(C)c1ccccc1` [(2S,6R,11S)-6,11-Dimethyl-3-[2-(methyl-phenyl-amino)-ethyl]-1,2,3,4,5,6-hexahydro-2,6-methano-benzo[d]azocin-8-ol], the Ki is reported as 5.6 nM.
`C=CCN1CCC2c3cc(O)ccc3CC1C2C` (configuration not stated) [SK&F-10047] showed a Ki of 169 nM.
